# Entries after “also recorded” stand apart in the source; their conditions may differ.
# Tests used:
# [1] = tested on: Caki‐1 xenograft tumors; assay: Cell proliferation (Ki67) and apoptosis (cleaved caspase 3) in tumor sections; format: in vivo, NOD.CB17‐Prkdc SCID/J mice; details: tumors at 21‐day trial endpoint
# Protocol: Tissue sections were prepared by embedding in OCT (Thermo Fisher Scientific, Waltham, MA) followed by freezing at − 80°C. Vessel leakiness was evaluated following tail‐vein injection of 100 μL of Dextran Texas Red (Invitrogen). Vessel integrity was assessed after tail‐vein injection of 50 μL of lectin labelled with FITC (Vector Labs, Burlingame, CA). Apoptotic cells were visualized using an anti‐rabbit cleaved caspase 3 primary antibody (Cell Signaling Technology, Danvers, MA) and an goat‐anti‐rabbit Alexa Fluor 594 secondary antibody (Cell Signaling Technology); proliferating cells were visualized using an anti‐mouse Ki67 primary antibody (Cell Signaling Technology) and an goat‐anti‐mouse Alexa Fluor 488 secondary antibody (Cell Signaling Technology); DAPI containing ProLong Gold Antifade Mounting Medium (Cell Signaling Technology) was used to visualize the nuclei and mount the slide.
# For all histological analyses, tumors from treated mice were compared to those of the vehicle control of the intervention trial. Samples from 4 mice per treatment group were analyzed. Stained samples were imaged at 20× magnification (ZEISS LSM 700). Cell proliferation and apoptosis were quantified one channel at a time using ImageJ (NIH, open access software) and were calculated as the percentage of Ki67 positive or cleaved caspase 3 positive cells per DAPI positive cells per field of view.
# [2] = tested on: Caki‐1 xenograft tumors; assay: Protein expression in tumor lysates (Proteome Profiler arrays); format: in vivo, NOD.CB17‐Prkdc SCID/J mice; details: tumor lysate, 21‐day trial, vs vehicle
# Protocol: Whole tumors were extracted at the trial endpoint and lysed. Before application to the array, protein concentration was determined by BCA. Then 150 µg of lysate was incubated for 24 hours with the Proteome Profiler Human XL Oncology Array (ARY026, R&D Systems) and Human Cell Stress Array (ARY018, R&D Systems). The relative expression levels of the proteases were determined according to the manufacturer's protocol, and signal intensities were compared using HLImage^++ software.
# [3] = Hematology values (complete blood count) after the trial; format: in vivo, NOD-SCID mice
# Protocol: Supplementary Table 2. Summary of hematology values (mean) for three specimens (collected 72h after the last dose of 10mg/kg/72h at the end of a 21 day trial (NOD/LtSz-Prkdscid/j. Complete blood counts of each group (n = 3 mice per group). Heparinized blood acquired from mice was assessed using the automatic Hematology Analyzer. Blood smears were carried out and fixed with methanol, stained, and observed under the microscope to carry out differential blood white cell counts.
# [4] = Plasma chemistry parameters after the trial; format: in vivo, tumor bearing NOD-SCID mice
# Protocol: Supplementary Table 1. Summary of plasma chemistry parameters metabolic analytes for three specimens (collected 72h after the last dose of 10mg/kg/72h at the end of a 21 day trial) from 3 tumor bearing NOD-SCID (NOD/LtSz-Prkdscid/j. The study criteria reflect pathological criterion used in clinical studies. Metabolic markers were quantified from freshly isolated plasma and compared to reference range.
# [5] = automatic count, blood 72h after last dose, 21 day trial, mean n = 3
# [6] = plasma 72h after last dose of 10mg/kg/72h, 21 day trial
substance,measurement,setting,value
[Cl2(p‐cymene)Ru(μ‐dppm)Au(IMes)]ClO4 [RANCE‐1],Apoptotic cells (cleaved caspase 3 positive) per DAPI positive cells,[1],1.6%
same,Proliferating cells (Ki67 positive) per DAPI positive cells,[1],2%
same,Reduction of tumor cell proliferation vs Veh,[1],18 fold
same,Decrease in apoptosis,[1]; vs Vehicle,0.4%
same,Decrease in cell proliferation,[1]; vs Vehicle,36%
same,CCL7 and CCL8 levels,[2],decrease
same,Expression of CapG protein,[2],suppressed
same,"Expression of HIF‐1a, ICAM, VE‐Cadherin, and VCAM‐1",[2],significantly decreased
same,"Expression of growth factors VEGF, PDGF, FGF, EGFR, and HGRF",[2],Significant reduction; also recorded: decrease
same,Expression of immune factors IL‐2R and GM‐CSF,[2],increase
same,M‐CSF expression,[2],increase
same,"Prometastatic factors CtsB, CtsS, FoxC2, MMP‐2, MMP‐3, MMP‐8, ADAM8, and ADAMP9",[2],significant decrease
same,RBC,"[3]; automatic count, blood 72h after last dose of 10mg/kg/72h, 21 day trial, mean n = 3, reference range 7.84-10.84",10.31 M/uL
same,PDW,[3]; [5],7.5 fL
same,RDW-SD,[3]; [5],31.03 fL
same,RET,"[3]; automatic count, blood 72h after last dose, 21 day trial, mean n = 3, reference range 2.56-4.56, marked *▾",2.03%
same,MPV,"[3]; automatic count, blood 72h after last dose, 21 day trial, mean n = 3, reference range 4.2-6.3",6.53 fL
same,HGB,"[3]; automatic count, blood 72h after last dose, 21 day trial, mean n = 3, reference range 11.8-17.6",15.8 g/dL
same,MCH,"[3]; automatic count, blood 72h after last dose, 21 day trial, mean n = 3, reference range 13.7-17.2",15.37 pg
same,RDW-CV,"[3]; automatic count, blood 72h after last dose, 21 day trial, mean n = 3, reference range 17.3-20.3",23.5%
same,MCHC,"[3]; automatic count, blood 72h after last dose, 21 day trial, mean n = 3, reference range 25.1-31.3",29.9 g/dL
same,HCT,"[3]; automatic count, blood 72h after last dose, 21 day trial, mean n = 3, reference range 44.1-58.3",52.8%
same,MCV,"[3]; automatic count, blood 72h after last dose, 21 day trial, mean n = 3, reference range 51.1-58.6",51.3 fL
same,RET#,"[3]; automatic count, blood 72h after last dose, 21 day trial, mean n = 3, reference range 294-444, marked *▾",192.67 K/uL
same,PLT,"[3]; automatic count, blood 72h after last dose, 21 day trial, mean n = 3, reference range 651-2055, marked *▾",1056.67 K/uL
same,Morphology (manual differential section),"[3]; blood smears, end of 21 day trial",Many neutrophils are hypersegmented.
same,Morphology (automatic count section),"[3]; blood smears, three specimens, end of 21 day trial",2+ PLT clumps. RBC morphology is within normal limits. 4+ polychromasia. 2+ acanthocytes. 4+ polychromasia. 2+ acanthocytes.
same,Physicochemical study and complete blood count,[3]; end of trial,no significant changes
same,Band#,"[3]; manual differential, blood 72h after last dose, 21 day trial",0 K/uL
same,MONO#,"[3]; manual differential, blood 72h after last dose, 21 day trial, reference range 0.03-0.26",0 K/uL
same,LYMPH#,"[3]; manual differential, blood 72h after last dose, 21 day trial, reference range 0.23-1.56, marked *▴",0.6167 K/uL
same,Neut#,"[3]; manual differential, blood 72h after last dose, 21 day trial, reference range 0.54-3.16, marked *▴, ◎",8.55 K/uL
same,MONO,"[3]; manual differential, blood 72h after last dose, 21 day trial, reference range 1.71-10.93, marked *▾",2%
same,LYMPH,"[3]; manual differential, blood 72h after last dose, 21 day trial, reference range 13.51-42.61, marked *▾",15.67%
same,NEUT,"[3]; manual differential, blood 72h after last dose, 21 day trial, reference range 44.21-79.92, marked *▴",80.67%
same,"Clinical chemistry, treated vs control animals",[4]; end of trial,no differences
same,Kidney health indicators,[4]; end of trial,within normal values
same,DBIL,[4]; [6],0.033 mg/dL
same,GGT,[4]; [6],0 U/L
same,IBIL,[4]; [6],0.2 mg/dL
same,TCO2,[4]; [6],18 mEq/L
same,Anion Gap,"[4]; plasma 72h after last dose of 10mg/kg/72h, 21 day trial, marked *▴",37.63
same,CREA,"[4]; plasma 72h after last dose of 10mg/kg/72h, 21 day trial, reference range 0.2-0.5",0.117 mg/dL
same,TBIL,"[4]; plasma 72h after last dose of 10mg/kg/72h, 21 day trial, reference range 0.2-0.6",0.23 mg/dL
same,GLOB,"[4]; plasma 72h after last dose of 10mg/kg/72h, 21 day trial, reference range 1.7-2.2",2.63 g/dL
same,ALB,"[4]; plasma 72h after last dose of 10mg/kg/72h, 21 day trial, reference range 2.4-4.3",2.57 g/dL
same,ALT,"[4]; plasma 72h after last dose of 10mg/kg/72h, 21 day trial, reference range 27-195",170.66 U/L
same,AST,"[4]; plasma 72h after last dose of 10mg/kg/72h, 21 day trial, reference range 54-77",394.67 U/L
same,CHOL,"[4]; plasma 72h after last dose of 10mg/kg/72h, 21 day trial, reference range 55-169",87.67 mg/dL
same,TRIG,"[4]; plasma 72h after last dose of 10mg/kg/72h, 21 day trial, reference range 67-289, marked *▾",116 mg/dL
same,ALP,"[4]; plasma 72h after last dose of 10mg/kg/72h, 21 day trial, reference range 105-370, marked *▾",39.33 U/L
same,Cl,"[4]; plasma 72h after last dose of 10mg/kg/72h, 21 day trial, reference range 111-134",106 mEq/L
same,GLU,"[4]; plasma 72h after last dose of 10mg/kg/72h, 21 day trial, reference range 172-372, marked *▾",165 mg/dL

# From article PMC6675714 (Cancer Medicine, 2019)
